Measurements reported in US7374870B2, “Systems and methods for removing viral agents from blood” (Fenwal, Inc., priority 1996, dated 2008).

Tests used:
[1] = system: viruses; assay: Viral inactivation by the photoreduction byproduct; conditions: byproduct formed by exposing methylene blue to visible ambient light
[2] = system: encephalomyocarditis virus (EMC); conditions: cited from earlier work

SMILES | effectiveness in inactivating viruses [1] | virucidal action on non-enveloped EMC [2]
CN(C)c1ccc2c(c1)Sc1cc(N(C)C)ccc1N2 [leucomethylene blue] | not effective in inactivating viruses | –
CN(C)c1ccc2nc3ccc(=[N+](C)C)cc-3sc2c1 [methylene blue] | – | demonstrated a resistance to the virucidal action
